Here are results for two compounds from patent US20230338360A1, “Method of Inhibiting Constitutively Active Phosphorylated FLT3 Kinase” (Arog Pharmaceuticals, Inc., priority 2012, published 2023).

Series [1] has as its target VEGFR-2 (Homo sapiens, UniProt P35968). Kind of series: Inhibition of other RTKs (IC50). The series is classed as biochemical.
For series [2], the target named is FGFR-2 (Homo sapiens, UniProt P21802). Kind of series: Inhibition of other RTKs (IC50). The class given is biochemical.
Series [3] has as its target TIE-2 (Homo sapiens, UniProt Q02763). Kind of series: Inhibition of other RTKs (IC50). The series is classed as biochemical.
Series [4] deals with Src (Homo sapiens, UniProt P12931). Kind of series: Inhibition of other RTKs (IC50). The class given is biochemical.
Series [5] addresses EGFR (Homo sapiens, UniProt P00533). Kind of series: Inhibition of other RTKs (IC50). The series is classed as biochemical.
Series [6] addresses erbB2 (Homo sapiens, UniProt P04626). Kind of series: Inhibition of other RTKs (IC50). The series is classed as biochemical.
Series [7] has as its system other kinases (VEGFR-2, FGFR-2, TIE-2, VEGFR, FGFR, EGFR, erbB2, src, Abl, Raf). Kind of series: Selectivity relative to other kinases. The class given is biochemical. The settings on record: at clinically achievable concentrations, e.g. VEGFR.
Series [8] concerns FLT3 ITD expressing Molm 14 cells. The settings on record: cited from earlier work; for Percent Apoptosis: Molm 14.
Series [9] relates to primary AML patient blast samples harboring the FLT3 ITD mutation. The settings on record: samples from five patients, increasing concentrations, MTT; cited from earlier work.
The test system of series [10] is luciferase-expressing MV-411 cells. The settings on record: 15 mg/kg intraperitoneally, male NSG mice, twice daily 2 days then once daily 2 days; p<0.01; cited from earlier work.
The subject of series [11] is Ba/F3 D835Y. The settings on record: text: viability, read-out: IC50 pFLT3; cited from earlier work.
The test system of series [12] is Ba/F3 D835N. The settings on record: text: viability, read-out: IC50 pFLT3; cited from earlier work.
The subject of series [13] is primary AML patient blasts with FLT3 D835 mutation. The settings on record: MTT assay, 3 day exposure; cited from earlier work. On the technique in general: Tetrazolium assays rely on reduction of a dye to a coloured formazan, in cell work by metabolically active cells.
Series [14] deals with Ba/F3 D835Y/ITD. The settings on record: text: viability, read-out: IC50 pFLT3; cited from earlier work.
In series [15] the test system is primary AML patient blasts with FLT3 ITD and FLT3 D835Y mutation. The settings on record: blasts incubated 3 days; patient relapsed after AC220; cited from earlier work.
The subject of series [16] is FLT3-ITD MV411 cells. The settings on record: crenolanib 0.1 uM for 5 minutes and 2 hours, […] radiolabeled cytarabine; cited from earlier work.
Series [17] has as its system MV-411 FLT3 ITD cells. The settings on record: combined with cytarabine in vitro; cited from earlier work.
Series [18] concerns the target wild type FLT3 receptor in HL60 (Homo sapiens, UniProt P36888). The settings on record: cited from earlier work.
The target of series [19] is ABL1(T315I) nonphosphorylated (Homo sapiens, UniProt P00519, T315I).
The target in series [20] is ABL1(T315I) phosphorylated (Homo sapiens, UniProt P00519, T315I).
For series [21], the target named is ABL1-nonphosphorylated (Homo sapiens, UniProt P00519).
For series [22], the target named is ABL1-phosphorylated (Homo sapiens, UniProt P00519).

Where two headings read alike, the source gives them in different places.

For orientation: IC50 means the concentration needed to halve the response being measured. Broadly, the Kd is the constant that tells how readily two partners part at equilibrium. Lower therefore signals a tighter complex.

Sequence of FGFR-2 (P21802 22-821, species assumed): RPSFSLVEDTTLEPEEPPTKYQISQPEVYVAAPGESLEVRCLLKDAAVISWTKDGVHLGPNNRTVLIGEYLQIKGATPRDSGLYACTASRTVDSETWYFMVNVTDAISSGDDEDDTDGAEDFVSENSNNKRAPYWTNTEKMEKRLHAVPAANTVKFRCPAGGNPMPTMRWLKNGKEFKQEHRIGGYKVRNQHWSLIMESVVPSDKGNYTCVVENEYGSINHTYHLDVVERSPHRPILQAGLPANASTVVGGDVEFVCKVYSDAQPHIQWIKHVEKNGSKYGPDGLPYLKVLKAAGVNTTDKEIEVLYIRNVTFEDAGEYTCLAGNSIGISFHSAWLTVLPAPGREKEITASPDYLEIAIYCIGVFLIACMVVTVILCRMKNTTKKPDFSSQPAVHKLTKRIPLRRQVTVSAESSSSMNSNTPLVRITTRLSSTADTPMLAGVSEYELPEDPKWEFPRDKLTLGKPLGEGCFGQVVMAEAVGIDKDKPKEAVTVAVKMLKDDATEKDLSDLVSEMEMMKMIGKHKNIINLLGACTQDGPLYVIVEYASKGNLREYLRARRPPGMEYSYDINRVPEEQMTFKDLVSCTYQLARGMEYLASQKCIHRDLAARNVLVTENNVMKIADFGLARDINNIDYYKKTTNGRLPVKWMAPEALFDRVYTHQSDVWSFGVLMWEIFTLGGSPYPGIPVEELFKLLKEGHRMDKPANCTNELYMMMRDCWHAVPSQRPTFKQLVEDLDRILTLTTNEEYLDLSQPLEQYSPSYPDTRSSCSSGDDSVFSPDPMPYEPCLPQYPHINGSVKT
Sequence of erbB2 (P04626 23-1255, species assumed): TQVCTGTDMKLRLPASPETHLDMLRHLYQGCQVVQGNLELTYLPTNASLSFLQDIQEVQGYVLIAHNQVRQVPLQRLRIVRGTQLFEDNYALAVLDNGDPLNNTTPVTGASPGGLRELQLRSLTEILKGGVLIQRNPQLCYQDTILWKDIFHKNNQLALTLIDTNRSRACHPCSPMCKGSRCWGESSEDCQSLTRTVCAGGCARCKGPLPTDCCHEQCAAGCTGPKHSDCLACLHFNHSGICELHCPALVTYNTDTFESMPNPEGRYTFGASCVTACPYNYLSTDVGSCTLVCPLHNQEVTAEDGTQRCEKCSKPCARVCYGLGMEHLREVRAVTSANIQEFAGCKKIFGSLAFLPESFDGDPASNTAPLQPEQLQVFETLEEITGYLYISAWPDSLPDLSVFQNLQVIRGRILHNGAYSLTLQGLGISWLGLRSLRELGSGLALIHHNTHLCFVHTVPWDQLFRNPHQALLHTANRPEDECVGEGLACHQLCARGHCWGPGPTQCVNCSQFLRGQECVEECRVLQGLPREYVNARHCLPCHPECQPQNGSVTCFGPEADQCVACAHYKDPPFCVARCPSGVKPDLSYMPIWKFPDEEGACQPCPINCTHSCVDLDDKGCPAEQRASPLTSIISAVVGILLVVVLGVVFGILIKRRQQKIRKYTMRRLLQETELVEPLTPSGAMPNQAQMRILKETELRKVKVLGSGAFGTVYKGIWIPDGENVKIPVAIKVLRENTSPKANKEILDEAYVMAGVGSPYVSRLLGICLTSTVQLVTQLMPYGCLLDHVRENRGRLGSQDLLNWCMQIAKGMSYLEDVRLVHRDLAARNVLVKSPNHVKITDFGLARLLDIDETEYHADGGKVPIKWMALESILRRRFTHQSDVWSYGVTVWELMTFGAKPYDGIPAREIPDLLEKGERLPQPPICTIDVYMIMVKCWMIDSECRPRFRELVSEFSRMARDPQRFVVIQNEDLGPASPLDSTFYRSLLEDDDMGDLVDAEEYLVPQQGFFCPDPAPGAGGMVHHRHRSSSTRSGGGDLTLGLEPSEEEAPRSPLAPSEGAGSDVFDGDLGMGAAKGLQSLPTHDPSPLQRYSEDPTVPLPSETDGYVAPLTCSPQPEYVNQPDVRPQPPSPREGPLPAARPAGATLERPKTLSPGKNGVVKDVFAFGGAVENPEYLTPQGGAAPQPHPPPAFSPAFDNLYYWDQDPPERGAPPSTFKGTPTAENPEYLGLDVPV
Sequence of Src (P12931 whole entry, species assumed): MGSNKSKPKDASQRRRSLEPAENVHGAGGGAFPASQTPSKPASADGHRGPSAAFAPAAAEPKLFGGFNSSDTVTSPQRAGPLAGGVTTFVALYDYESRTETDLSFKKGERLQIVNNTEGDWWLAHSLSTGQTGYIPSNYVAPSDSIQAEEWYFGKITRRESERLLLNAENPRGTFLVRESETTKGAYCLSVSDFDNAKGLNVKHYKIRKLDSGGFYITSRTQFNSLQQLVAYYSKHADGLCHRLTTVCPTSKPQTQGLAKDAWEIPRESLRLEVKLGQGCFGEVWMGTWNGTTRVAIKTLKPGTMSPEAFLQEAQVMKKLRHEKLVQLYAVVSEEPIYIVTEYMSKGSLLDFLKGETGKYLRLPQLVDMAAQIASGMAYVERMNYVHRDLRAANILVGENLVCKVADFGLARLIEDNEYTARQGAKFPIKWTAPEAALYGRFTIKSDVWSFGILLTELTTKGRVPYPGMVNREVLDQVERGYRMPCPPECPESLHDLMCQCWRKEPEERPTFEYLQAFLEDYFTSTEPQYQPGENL
Sequence of VEGFR-2 (P35968 20-1356, species assumed): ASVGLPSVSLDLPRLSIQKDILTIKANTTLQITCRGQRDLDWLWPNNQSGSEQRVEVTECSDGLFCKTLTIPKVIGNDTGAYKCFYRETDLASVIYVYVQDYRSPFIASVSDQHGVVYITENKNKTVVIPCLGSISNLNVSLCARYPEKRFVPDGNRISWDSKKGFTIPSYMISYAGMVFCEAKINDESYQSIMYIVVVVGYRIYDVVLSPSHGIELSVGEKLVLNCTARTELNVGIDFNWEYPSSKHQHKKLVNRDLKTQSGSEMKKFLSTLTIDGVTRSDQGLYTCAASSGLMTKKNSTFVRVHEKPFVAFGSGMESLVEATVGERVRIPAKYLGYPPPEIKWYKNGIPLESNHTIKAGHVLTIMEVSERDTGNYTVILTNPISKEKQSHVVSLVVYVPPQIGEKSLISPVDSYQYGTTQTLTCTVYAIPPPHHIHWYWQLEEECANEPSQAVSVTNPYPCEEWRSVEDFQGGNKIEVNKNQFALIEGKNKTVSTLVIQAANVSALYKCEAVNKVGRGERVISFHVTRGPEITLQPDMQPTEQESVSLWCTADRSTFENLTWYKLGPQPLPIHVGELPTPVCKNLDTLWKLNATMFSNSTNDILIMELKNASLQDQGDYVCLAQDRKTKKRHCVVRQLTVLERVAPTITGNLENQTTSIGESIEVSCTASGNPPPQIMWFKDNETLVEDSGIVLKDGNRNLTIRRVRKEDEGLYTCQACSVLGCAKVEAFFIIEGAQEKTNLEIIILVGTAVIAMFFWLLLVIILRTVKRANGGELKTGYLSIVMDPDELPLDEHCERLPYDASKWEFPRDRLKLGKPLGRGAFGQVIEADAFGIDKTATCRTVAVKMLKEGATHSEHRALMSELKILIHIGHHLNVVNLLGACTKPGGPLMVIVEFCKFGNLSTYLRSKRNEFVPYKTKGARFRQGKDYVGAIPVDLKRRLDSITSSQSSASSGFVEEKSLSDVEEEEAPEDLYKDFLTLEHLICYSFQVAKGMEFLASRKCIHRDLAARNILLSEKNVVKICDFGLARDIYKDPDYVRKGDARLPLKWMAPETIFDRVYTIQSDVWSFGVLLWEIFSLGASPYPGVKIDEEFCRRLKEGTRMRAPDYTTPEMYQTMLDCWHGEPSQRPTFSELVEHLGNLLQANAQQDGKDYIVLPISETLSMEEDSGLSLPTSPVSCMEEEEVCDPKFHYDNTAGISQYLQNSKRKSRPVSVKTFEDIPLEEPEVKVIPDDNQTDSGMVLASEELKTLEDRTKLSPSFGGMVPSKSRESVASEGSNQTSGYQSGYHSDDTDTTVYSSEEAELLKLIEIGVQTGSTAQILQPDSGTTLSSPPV
Sequence of TIE-2 (Q02763 23-1124, species assumed): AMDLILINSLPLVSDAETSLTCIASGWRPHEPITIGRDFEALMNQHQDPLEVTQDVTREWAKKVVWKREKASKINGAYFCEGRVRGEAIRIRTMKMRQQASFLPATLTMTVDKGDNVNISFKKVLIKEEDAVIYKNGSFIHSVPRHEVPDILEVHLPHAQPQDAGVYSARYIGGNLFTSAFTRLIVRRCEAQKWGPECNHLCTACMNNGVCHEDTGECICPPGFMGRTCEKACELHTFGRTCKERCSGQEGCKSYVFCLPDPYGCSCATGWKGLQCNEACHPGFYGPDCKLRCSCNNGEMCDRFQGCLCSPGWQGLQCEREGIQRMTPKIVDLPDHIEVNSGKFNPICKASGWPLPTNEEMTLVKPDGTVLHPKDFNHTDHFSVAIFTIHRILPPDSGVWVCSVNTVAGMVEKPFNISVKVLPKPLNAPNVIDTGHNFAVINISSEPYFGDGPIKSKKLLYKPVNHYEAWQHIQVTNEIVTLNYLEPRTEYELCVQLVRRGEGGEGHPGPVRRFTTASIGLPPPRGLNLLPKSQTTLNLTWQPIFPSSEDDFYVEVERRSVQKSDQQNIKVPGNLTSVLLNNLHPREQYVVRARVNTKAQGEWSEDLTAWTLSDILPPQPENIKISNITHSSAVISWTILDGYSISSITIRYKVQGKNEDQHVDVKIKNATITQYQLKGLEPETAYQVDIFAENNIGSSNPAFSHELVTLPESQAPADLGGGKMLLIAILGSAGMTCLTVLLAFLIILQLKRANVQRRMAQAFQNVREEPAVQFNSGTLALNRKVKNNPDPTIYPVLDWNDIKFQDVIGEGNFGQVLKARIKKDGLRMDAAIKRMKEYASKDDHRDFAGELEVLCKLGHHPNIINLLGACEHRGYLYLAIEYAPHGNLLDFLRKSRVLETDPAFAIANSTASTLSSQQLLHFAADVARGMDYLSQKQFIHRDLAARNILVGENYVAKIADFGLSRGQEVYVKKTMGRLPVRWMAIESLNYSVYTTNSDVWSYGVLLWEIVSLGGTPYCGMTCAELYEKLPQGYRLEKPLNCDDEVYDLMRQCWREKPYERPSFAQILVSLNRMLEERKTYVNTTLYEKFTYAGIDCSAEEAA

As for `CC1(COc2ccc3c(c2)ncn3-c2ccc3cccc(N4CCC(N)CC4)c3n2)COC1` [Crenolanib Besylate], the IC50 in series [1] was 273 nM; in [2] it was > 5070 nM; in series [3], > 5070 nM; in [4], 4980 nM; in series [5] it was > 10000 nM; in series [6], > 10000 nM. Moreover, the IC50 in [11] was 6.38 nM; in [12], 3.93 nM; in [14], 20.4 nM. In addition, the “inhibition of other known RTKs or serine/threonine kinases” value in series [7] is “does not inhibit”. Moreover, the entries for the “Percent Apoptosis” value in series [8] (compound concentration 20 nM), in series [8] (compound concentration 50 nM) and in series [8] (compound concentration 100 nM) were 32.79%, 44.99% and 51.17%, respectively. In [8] (concentrations 20 nM to 100 nM), the “cytotoxic response of Molm 14 cells compared to sorafenib” value is recorded as “significantly higher as compared to sorafenib”. For the same compound, the cytotoxicity result in [9] is “Cytotoxicity was observed in a dose dependent fashion”. Besides, the “MV-411-luciferase bone marrow infiltration compared to vehicle” value in [10] is on record as “siginificantly suppressed”. For the same compound, the “cytotoxic response compared with sorafenib” value in series [13] was “greater cytotoxic response”. The cytotoxic effect result in series [15] is on record as “induced a cytotoxic effect”. Moreover, the cytarabine accumulation entry in [16] is “does not decrease cytarabine accumulation”. Also, in series [17], the “anti-leukemic effect of combination with cytarabine” value is listed as “Synergistic in vitro anti-leukemic effects”. For the same compound, in series [18], the “phosphorylation inhibition of wild type FLT3 receptor” value is given as “increased phosphorylation inhibition in a dose dependent fashion”. Further, the Kd in [19] is 12000 nM; in series [20] it was 760 nM; in series [21], 600 nM; in series [22], 88 nM.
Turning to `CNC(=O)c1cc(Oc2ccc(NC(=O)Nc3ccc(Cl)c(C(F)(F)F)c3)cc2)ccn1` [Sorafenib, reference compound], the “Percent Apoptosis” value in [8] (compound concentration 20 nM) was 13.07%; in series [8] (compound concentration 50 nM), 30.21%; in [8] (compound concentration 100 nM) it was 44.09%. Moreover, the cytotoxic effect entry in series [15] was “ineffective”.
